The nature of series [1]: Cmax in Sprague-Dawley rat plasma at 1 umol/kg, it by HPLC-MS/MS method. Type of series: ADME, cell-free. The note with it: inhaled or intranasal. More on the design: dose 1 umol/kg.
Series [2] is described as follows: Cmax in Sprague-Dawley rat lung at 1 umol/kg, it by HPLC-MS/MS method. The series is classed as ADME, tissue-based. More on the design: dose 1 umol/kg. The note with it: in vivo, inhaled_or_intranasal.
The nature of series [3]: AUClast in Sprague-Dawley rat plasma at 1 umol/kg, it by HPLC-MS/MS method. Type of series: ADME, cell-free. The note with it: inhaled or intranasal.
The nature of series [4]: AUClast in Sprague-Dawley rat lung at 1 umol/kg, it by HPLC-MS/MS method. Type of series: ADME, tissue-based. Particulars: in vivo, inhaled_or_intranasal.
Series [5] can be described thus: MRTlast in Sprague-Dawley rat plasma at 1 umol/kg, it by HPLC-MS/MS method. The series is classed as ADME, cell-free. The note with it: inhaled or intranasal.
Series [6] can be described thus: MRTlast in Sprague-Dawley rat lung at 1 umol/kg, it by HPLC-MS/MS method. The note with it: inhaled or intranasal. The series is classed as ADME, tissue-based.
In series [7] the test system is Rattus norvegicus. Nature of the series: Antiinflammatory activity in it dosed LPS-induced Sprague-Dawley rat neutrophilic lung inflammation model assessed as inhibition of neutrophilic infiltration in bronchoalveolar lavage preincubated for 1 hr followed by LPS challenge measured after 4 hrs. Particulars: read-out: ID50 (the source's name). The series is classed as functional.

Series [8] relates to Rattus norvegicus. Nature of the series: Antiinflammatory activity in LPS-induced Sprague-Dawley rat neutrophilic lung inflammation model assessed as inhibition of neutrophilic infiltration in bronchoalveolar lavage at 3 mg/kg, it preincubated for 1 hr followed by LPS challenge measured after 4 hrs relative to control. The series is classed as functional.
The subject of series [9] is Rattus norvegicus. Nature of the series: Antiinflammatory activity in LPS-induced Sprague-Dawley rat neutrophilic lung inflammation model assessed as inhibition of neutrophilic infiltration in bronchoalveolar lavage at 0.1 mg/kg, it preincubated for 1 hr followed by LPS challenge measured after 4 hrs relative to control. Type of series: functional.
For series [10], the system named is Rattus norvegicus. The series is described as follows: Antiinflammatory activity in LPS-induced Sprague-Dawley rat neutrophilic lung inflammation model assessed as inhibition of neutrophilic infiltration in bronchoalveolar lavage at 0.3 mg/kg, it preincubated for 1 hr followed by LPS challenge measured after 4 hrs relative to control. Type of series: functional.

The subject of series [11] is Rattus norvegicus. The series is described as follows: Antiinflammatory activity in LPS-induced Sprague-Dawley rat neutrophilic lung inflammation model assessed as inhibition of neutrophilic infiltration in bronchoalveolar lavage at 1 mg/kg, it preincubated for 1 hr followed by LPS challenge measured after 4 hrs relative to control. The series is classed as functional.

The species entered for series [12] is Rattus norvegicus. The series is described as follows: Antiinflammatory activity in LPS-induced Sprague-Dawley rat neutrophilic lung inflammation model assessed as inhibition of neutrophilic infiltration in bronchoalveolar lavage at ID80, it preincubated for 24 hrs followed by LPS challenge measured after 4 hrs relative to control. Type of series: functional.

For series [13], the system named is RAW264.7. Nature of the series: cells. Particulars: Mus musculus.
Description: Antiinflammatory activity in mouse RAW264.7 cells assessed as inhibition of LPS-induced nitric oxide release preincubated for 15 mins followed by LPS challenge measured after 18 hrs by Griess assay
Series [14] deals with Rattus norvegicus. Nature of the series: Antiinflammatory activity in LPS-induced Sprague-Dawley rat neutrophilic lung inflammation model assessed as inhibition of neutrophilic infiltration in bronchoalveolar lavage at 0.03 mg/kg, it preincubated for 1 hr followed by LPS challenge measured after 4 hrs relative to control. The series is classed as functional.
In series [15] the target is T1, Glucocorticoid receptor (Homo sapiens, UniProt P04150).
T1 sequence (P04150 whole entry): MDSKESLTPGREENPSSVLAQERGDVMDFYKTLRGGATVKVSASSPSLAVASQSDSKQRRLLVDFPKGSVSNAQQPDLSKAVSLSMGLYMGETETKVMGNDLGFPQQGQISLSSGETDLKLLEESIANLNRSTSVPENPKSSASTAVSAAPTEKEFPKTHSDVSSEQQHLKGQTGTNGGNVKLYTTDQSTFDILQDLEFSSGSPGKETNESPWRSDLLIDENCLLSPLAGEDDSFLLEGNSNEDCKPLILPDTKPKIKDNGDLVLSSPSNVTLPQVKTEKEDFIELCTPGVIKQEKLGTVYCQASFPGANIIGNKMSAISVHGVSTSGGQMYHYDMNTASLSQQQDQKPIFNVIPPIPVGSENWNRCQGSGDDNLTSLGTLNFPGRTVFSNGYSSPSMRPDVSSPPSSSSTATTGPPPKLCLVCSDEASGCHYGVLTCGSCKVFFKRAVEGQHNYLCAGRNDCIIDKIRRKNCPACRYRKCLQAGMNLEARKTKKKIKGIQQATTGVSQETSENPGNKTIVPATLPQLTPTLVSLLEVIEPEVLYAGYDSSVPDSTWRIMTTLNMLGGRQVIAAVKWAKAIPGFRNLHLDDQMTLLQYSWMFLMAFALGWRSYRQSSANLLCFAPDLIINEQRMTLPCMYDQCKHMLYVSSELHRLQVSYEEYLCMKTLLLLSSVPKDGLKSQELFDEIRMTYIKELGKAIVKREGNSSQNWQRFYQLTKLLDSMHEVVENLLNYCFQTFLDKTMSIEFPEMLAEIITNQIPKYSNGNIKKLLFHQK
Description: Induction of nuclear translocation of human recombinant ProLabel-tagged glucocorticoid receptor expressed in CHO-K1 cells after 3 hrs by luminescence method

The target in series [16] is T2, Mineralocorticoid receptor (Homo sapiens, UniProt P08235).
T2 sequence (P08235 whole entry): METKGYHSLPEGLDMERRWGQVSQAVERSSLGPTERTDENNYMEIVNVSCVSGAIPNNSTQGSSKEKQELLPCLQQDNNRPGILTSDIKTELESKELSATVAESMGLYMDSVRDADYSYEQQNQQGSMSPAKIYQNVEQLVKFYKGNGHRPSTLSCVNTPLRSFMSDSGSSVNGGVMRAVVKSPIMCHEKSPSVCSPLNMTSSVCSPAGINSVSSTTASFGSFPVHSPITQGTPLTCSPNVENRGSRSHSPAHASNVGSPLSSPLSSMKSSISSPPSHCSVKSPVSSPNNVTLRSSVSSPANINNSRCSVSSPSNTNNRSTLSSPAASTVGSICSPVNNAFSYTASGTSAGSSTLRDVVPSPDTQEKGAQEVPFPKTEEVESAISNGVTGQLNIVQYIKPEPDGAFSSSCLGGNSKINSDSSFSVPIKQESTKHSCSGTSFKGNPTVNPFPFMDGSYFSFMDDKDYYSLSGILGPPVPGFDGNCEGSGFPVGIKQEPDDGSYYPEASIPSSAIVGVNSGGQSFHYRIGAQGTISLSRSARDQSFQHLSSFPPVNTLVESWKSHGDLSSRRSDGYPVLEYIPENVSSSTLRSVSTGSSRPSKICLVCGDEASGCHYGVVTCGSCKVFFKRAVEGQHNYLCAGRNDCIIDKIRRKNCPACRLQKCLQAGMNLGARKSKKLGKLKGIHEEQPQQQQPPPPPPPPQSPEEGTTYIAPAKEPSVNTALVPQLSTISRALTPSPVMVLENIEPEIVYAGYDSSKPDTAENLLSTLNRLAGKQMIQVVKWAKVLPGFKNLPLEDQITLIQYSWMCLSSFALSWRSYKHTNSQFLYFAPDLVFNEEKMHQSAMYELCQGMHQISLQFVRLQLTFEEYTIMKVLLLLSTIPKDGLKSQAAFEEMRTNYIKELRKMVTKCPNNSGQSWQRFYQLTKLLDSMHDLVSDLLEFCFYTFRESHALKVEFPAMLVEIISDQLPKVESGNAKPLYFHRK
Description: Induction of nuclear translocation of human recombinant ProLabel-tagged mineralocorticoid receptor expressed in CHO-K1 cells after 3 hrs by luminescence method

A short description of series [17]: physchem.
Description: Dissociation constant, pKa of the compound
Series [18] has as its target T1, Glucocorticoid receptor. Nature of the series: biochemical.
Description: Displacement of [3H]dexamethasone from human recombinant glucocorticoid receptor expressed in insect cells after 24 hrs by scintillation proximity assay
The target of series [19] is T3, Glucocorticoid receptor (Homo sapiens) (UniProt P04150).
T3 sequence (whole entry): T1 sequence (P04150 whole entry)
Nature of the series: Displacement of [3H]dexamethasone from human recombinant glucocorticoid receptor expressed in insect cells at 1000 nM after 24 hrs by scintillation proximity assay relative to control. A general note: In a radioligand displacement assay an active substance lowers the binding of a labelled ligand.

SMILES strings stand for the structures. Activity calls are given as the source filed them. The rule behind the calls is not given here.

A word on the AUC(0-t): it is exposure summed from dosing to a finite time, without extrapolation to infinity. A high value points to more exposure. The MRT last is a mean duration of stay, worked out from the concentration-time curve. By inhibition in vivo is commonly meant the drop in the measured response relative to a control, in per cent. A word on the inhibition: it is the change of the read-out against control, counted positive when it falls. The term IC50 denotes the point on the concentration scale where inhibition reaches its midpoint. Read a low IC50 as greater potency in that assay. Consider `CCCC1O[C@@H]2C[C@H]3[C@@H]4CCC5=CC(=O)C=C[C@]5(C)[C@H]4[C@@H](O)C[C@]3(C)[C@]2(C(=O)CO)O1` (stereo partly specified) [BUDESONIDE], for which the Cmax in series [1] is 127 nM; in series [2], 18.67 nmol/g. The same molecule registered an AUC(0-t) in series [3] of 11.6 µM·h. This molecule showed an AUClast in [4] of 110.03 nmol·h/g. In addition, the figures for the mean residence time (MRT last) in series [5] and in series [6] were 1.2 h and 0.71 h, respectively. Moreover, in series [7], the ED50 is 0.34 µmol/kg. The inhibition in vivo at 3 mg/kg in series [8] stood at 84%. For the same molecule, the inhibition in vivo at 0.1 mg/kg in [9] amounted to 29%. In addition, the inhibition in vivo at 0.3 mg/kg in series [10] is 45%. The inhibition in vivo at 1 mg/kg in series [11] was determined as 73%. In addition, the inhibition result in series [12] is “inactive”. In addition, in [13], the IC50 was 0.82 nM.
Consider `C[C@]12C=CC(=O)C=C1[C@@H](F)C[C@H]1[C@@H]3C[C@H]4CN(Cc5cccc(Cl)c5)C[C@@]4(C(=O)CO)[C@@]3(C)C[C@H](O)[C@@]12F.Cl`, for which the Cmax in series [1] stood at 90 nM; in series [2] it was 9.03 nmol/g. The same molecule gave an AUC(0-t) in series [3] of 0.12 µM·h. The AUClast in series [4] is 9 nmol·h/g. The MRT last in series [5] came out at 1.1 h; in series [6], 6.4 h.
The term EC50 denotes the concentration needed to bring the measured effect to its halfway point. High values mean weaker potency, low ones greater potency. A word on the pKa: it is the negative logarithm of the acid dissociation constant. Read a high pKa as a weaker acid or stronger base. For orientation: Ki means the equilibrium dissociation constant of an inhibitor or competing ligand from its target. For `C[C@]12C=CC(=O)C=C1[C@@H](F)C[C@H]1[C@@H]3C[C@H]4CN(Cc5cccc(Cl)c5)C[C@@]4(C(=O)CO)[C@@]3(C)C[C@H](O)[C@@]12F`, the results for the Cmax in series [1] and in [2] were 110 nM and 64.26 nmol/g, respectively. In series [3], this molecule displayed an AUC(0-t) of 0.118 µM·h. The AUClast in [4] came out at 871.2 nmol·h/g. In addition, the values for the MRT last in series [5] and in series [6] were 1.4 h and 16.7 h, respectively. Besides, the ED50 in series [7] amounted to 0.097 µmol/kg. In series [14], the inhibition in vivo at 0.03 mg/kg was 47%. The inhibition in vivo at 0.1 mg/kg in series [9] is 56%. For the same molecule, the inhibition in vivo at 0.3 mg/kg in series [10] was 64%. The inhibition in vivo at 1 mg/kg in series [11] amounted to 92%. The “inhibition (INH)” value in series [12] was greater than 80%. Also, the results for the EC50 in series [15] and in [16] were 1.8 nM and 2.5 nM, respectively. This molecule also registered an IC50 in series [13] of 0.08 nM. Besides, the pKa in series [17] was 6.64. Moreover, affinity in series [18] was put at a Ki of 0.76 nM.
Consider `C[C@@H]1C[C@H]2[C@@H]3C[C@H](F)C4=CC(=O)C=C[C@]4(C)[C@@]3(F)[C@@H](O)C[C@]2(C)[C@@]1(OC(=O)c1ccco1)C(=O)SCF` [FLUTICASONE FUROATE], for which the figures for the Cmax in series [1] and in [2] were 45 nM and 77.1 nmol/g, respectively. Besides, the AUC(0-t) in [3] came to 0.05 µM·h. In addition, the AUClast in series [4] is 1049 nmol·h/g. Moreover, the MRT last was found to be 1.4 h in series [5] and 9.5 h in [6]. Moreover, the “inhibition (INH)” value in [12] is greater than 80%. In series [13], this molecule displayed an IC50 of 0.1 nM.
For the molecule `C[C@]12C=CC(=O)C=C1[C@@H](F)C[C@H]1[C@@H]3C[C@H]4CNC[C@@]4(C(=O)CO)[C@@]3(C)C[C@H](O)[C@@]12F`, the inhibition in [19] turned out to be 40%. In series [17], this molecule registered a pKa of 8.82.

The values are drawn from ChEMBL document CHEMBL4184331 (J Med Chem, 2018).
